From patent US20080058373A1, “Compositions and Methods for Treating or Preventing Glaucoma or Progression Thereof” (priority 2006, published 2008)

Test system: New Zealand White rabbits
Assay: Intraocular pressure (IOP) in rabbits, topical dosing four times daily
Type: in vivo
Conditions: for Intraocular Pressure (MEAN): treated right eyes
Experimental: Seventy-five rabbits underwent two weeks of IOP training to condition them for IOP measurement. IOP was determined for both eyes of each animal using a Medtronic Solan, Model 30 classic pneumatonometer. Proparacaine hydrochloride 0.5% (1 drop) was delivered to each eye prior to IOP measurement. A two-point diurnal curve was established: IOP was recorded on Monday, Wednesday, and Friday of each week, at 8 a.m. and 12 p.m., with a ±1 hour range for each of these times. The time of the measurements was recorded.
On Days 1-31, animals received daily topical doses of the appropriate test article into the right eye. Animals were dosed four times per day, with doses administered 2 hours apart. Doses were administered using a calibrated 50-μL pipette. The eyelids were held close for 10 seconds immediately following dosing. The time of each dose administration was recorded.
Intraocular pressure (“IOP”) was determined for both eyes of each animal on Days 3, 5, 10, 12, 16, 18, 22, 24, 26, 30, and 32. IOP was evaluated with a Medtronic Solan, Model 30 classic pneumatonometer. Proparacaine hydrochloride 0.5% (1 drop) was delivered to each eye prior to IOP measurement. IOP was measured on Monday, Wednesday, and Friday of each week. A two-point diurnal curve was established: IOP was recorded at 8 a.m. and 12 p.m. on Day 3, and at 8 a.m. and 2 p.m. on later days, with a ±1 hour range for each of these times. The time of the measurements was recorded.
Descriptive statistics were prepared for IOP data of each treatment group (left and right eyes separately) at each measurement interval. The statistics included the number of observations (“N”), mean, standard deviation (“STD”), and standard error (“SEM”). Statistical analyses were conducted on IOP results using Statistical Analysis Systems (SAS Institute, Inc., Cary, N.C., V8.0). Parameters were evaluated using analysis of variance/GLM Procedure followed by Tukey's Standardized Range Test (Tukey, 1985) for post hoc comparisons of group means. The level of significance was set at a probability of p<0.05 for all statistical procedures. Group IOP means were compared at each interval, with left and right eyes compared separately.

SMILES: Cc1ccc2c(NCC(O)(CC(C)(C)c3cc(F)cc4c3OCC4)C(F)(F)F)cccc2n1 (centres unmarked)
- Intraocular Pressure in Untreated Left Eyes (A.M. Readings), MEAN (1 mg/g (Group D), Day 3): 23.5 mmHg
- Intraocular Pressure in Untreated Left Eyes (A.M. Readings), MEAN (1 mg/g (Group D), Day 5): 24.4 mmHg
- Intraocular Pressure in Untreated Left Eyes (A.M. Readings), MEAN (1 mg/g (Group D), Day 10): 24.5 mmHg
- Intraocular Pressure in Untreated Left Eyes (A.M. Readings), MEAN (1 mg/g (Group D), Day 12): 22.2 mmHg
- Intraocular Pressure in Untreated Left Eyes (A.M. Readings), MEAN (1 mg/g (Group D), Day 16): 21.6 mmHg
- Intraocular Pressure in Untreated Left Eyes (A.M. Readings), MEAN (1 mg/g (Group D), Day 18): 23.3 mmHg
- Intraocular Pressure in Untreated Left Eyes (A.M. Readings), MEAN (1 mg/g (Group D), Day 22): 22.4 mmHg
- Intraocular Pressure in Untreated Left Eyes (A.M. Readings), MEAN (1 mg/g (Group D), Day 24): 22.4 mmHg
- Intraocular Pressure in Untreated Left Eyes (A.M. Readings), MEAN (1 mg/g (Group D), Day 26): 22.9 mmHg
- Intraocular Pressure in Untreated Left Eyes (A.M. Readings), MEAN (1 mg/g (Group D), Day 30): 23.4 mmHg
- Intraocular Pressure in Untreated Left Eyes (A.M. Readings), MEAN (1 mg/g (Group D), Day 32): 24.1 mmHg
- Intraocular Pressure in Untreated Left Eyes (A.M. Readings), MEAN (1 mg/g (Group D), Pre-Study): 23.9 mmHg
- Intraocular Pressure in Untreated Left Eyes (A.M. Readings), MEAN (5 mg/g (Group C), Day 3): 23.8 mmHg
- Intraocular Pressure in Untreated Left Eyes (A.M. Readings), MEAN (5 mg/g (Group C), Day 5): 24.4 mmHg
- Intraocular Pressure in Untreated Left Eyes (A.M. Readings), MEAN (5 mg/g (Group C), Day 10): 24.6 mmHg
- Intraocular Pressure in Untreated Left Eyes (A.M. Readings), MEAN (5 mg/g (Group C), Day 12): 23.8 mmHg
- Intraocular Pressure in Untreated Left Eyes (A.M. Readings), MEAN (5 mg/g (Group C), Day 16): 23.4 mmHg
- Intraocular Pressure in Untreated Left Eyes (A.M. Readings), MEAN (5 mg/g (Group C), Day 18): 21.9 mmHg
- Intraocular Pressure in Untreated Left Eyes (A.M. Readings), MEAN (5 mg/g (Group C), Day 22): 21.6 mmHg
- Intraocular Pressure in Untreated Left Eyes (A.M. Readings), MEAN (5 mg/g (Group C), Day 24): 22.1 mmHg
- Intraocular Pressure in Untreated Left Eyes (A.M. Readings), MEAN (5 mg/g (Group C), Day 26): 21.7 mmHg
- Intraocular Pressure in Untreated Left Eyes (A.M. Readings), MEAN (5 mg/g (Group C), Day 30): 22.6 mmHg
- Intraocular Pressure in Untreated Left Eyes (A.M. Readings), MEAN (5 mg/g (Group C), Day 32): 23.1 mmHg
- Intraocular Pressure in Untreated Left Eyes (A.M. Readings), MEAN (5 mg/g (Group C), Pre-Study): 24.2 mmHg
- Intraocular Pressure in Untreated Left Eyes (A.M. Readings), MEAN (10 mg/g (Group B), Day 3): 23.3 mmHg
- Intraocular Pressure in Untreated Left Eyes (A.M. Readings), MEAN (10 mg/g (Group B), Day 5): 23.4 mmHg
- Intraocular Pressure in Untreated Left Eyes (A.M. Readings), MEAN (10 mg/g (Group B), Day 10): 24.0 mmHg
- Intraocular Pressure in Untreated Left Eyes (A.M. Readings), MEAN (10 mg/g (Group B), Day 12): 23.8 mmHg
- Intraocular Pressure in Untreated Left Eyes (A.M. Readings), MEAN (10 mg/g (Group B), Day 16): 22.9 mmHg
- Intraocular Pressure in Untreated Left Eyes (A.M. Readings), MEAN (10 mg/g (Group B), Day 18): 21.2 mmHg
- Intraocular Pressure in Untreated Left Eyes (A.M. Readings), MEAN (10 mg/g (Group B), Day 22): 21.8 mmHg
- Intraocular Pressure in Untreated Left Eyes (A.M. Readings), MEAN (10 mg/g (Group B), Day 24): 20.2 mmHg
- Intraocular Pressure in Untreated Left Eyes (A.M. Readings), MEAN (10 mg/g (Group B), Day 26): 21.7 mmHg
- Intraocular Pressure in Untreated Left Eyes (A.M. Readings), MEAN (10 mg/g (Group B), Day 30): 22.7 mmHg
- Intraocular Pressure in Untreated Left Eyes (A.M. Readings), MEAN (10 mg/g (Group B), Day 32): 22.9 mmHg
- Intraocular Pressure in Untreated Left Eyes (A.M. Readings), MEAN (10 mg/g (Group B), Pre-Study): 23.8 mmHg
- Intraocular Pressure (MEAN) (A.M. readings, Day 3, 1 mg/g (Group D)): 23.0 mmHg
- Intraocular Pressure (MEAN) (A.M. readings, Day 3, 5 mg/g (Group C)): 23.7 mmHg
- Intraocular Pressure (MEAN) (A.M. readings, Day 3, 10 mg/g (Group B)): 22.7 mmHg
- Intraocular Pressure (MEAN) (A.M. readings, Day 5, 1 mg/g (Group D)): 24.7 mmHg
- Intraocular Pressure (MEAN) (A.M. readings, Day 5, 5 mg/g (Group C)): 24.7 mmHg
- Intraocular Pressure (MEAN) (A.M. readings, Day 5, 10 mg/g (Group B)): 23.8 mmHg
- Intraocular Pressure (MEAN) (A.M. readings, Day 10, 1 mg/g (Group D)): 24.8 mmHg
- Intraocular Pressure (MEAN) (A.M. readings, Day 10, 5 mg/g (Group C)): 25.2 mmHg
- Intraocular Pressure (MEAN) (A.M. readings, Day 10, 10 mg/g (Group B)): 24.5 mmHg
- Intraocular Pressure (MEAN) (A.M. readings, Day 12, 1 mg/g (Group D)): 23.4 mmHg
- Intraocular Pressure (MEAN) (A.M. readings, Day 12, 5 mg/g (Group C)): 25.0 mmHg
- Intraocular Pressure (MEAN) (A.M. readings, Day 12, 10 mg/g (Group B)): 23.9 mmHg
- Intraocular Pressure (MEAN) (A.M. readings, Day 16, 1 mg/g (Group D)): 22.1 mmHg
- Intraocular Pressure (MEAN) (A.M. readings, Day 16, 5 mg/g (Group C)): 24.3 mmHg
- Intraocular Pressure (MEAN) (A.M. readings, Day 16, 10 mg/g (Group B)): 23.4 mmHg
- Intraocular Pressure (MEAN) (A.M. readings, Day 18, 1 mg/g (Group D)): 23.7 mmHg
- Intraocular Pressure (MEAN) (A.M. readings, Day 18, 5 mg/g (Group C)): 23.9 mmHg
- Intraocular Pressure (MEAN) (A.M. readings, Day 18, 10 mg/g (Group B)): 22.3 mmHg
- Intraocular Pressure (MEAN) (A.M. readings, Day 22, 1 mg/g (Group D)): 23.2 mmHg
- Intraocular Pressure (MEAN) (A.M. readings, Day 22, 5 mg/g (Group C)): 22.4 mmHg
- Intraocular Pressure (MEAN) (A.M. readings, Day 22, 10 mg/g (Group B)): 22.4 mmHg
- Intraocular Pressure (MEAN) (A.M. readings, Day 24, 1 mg/g (Group D)): 22.1 mmHg
- Intraocular Pressure (MEAN) (A.M. readings, Day 24, 5 mg/g (Group C)): 23.8 mmHg
- Intraocular Pressure (MEAN) (A.M. readings, Day 24, 10 mg/g (Group B)): 21.2 mmHg
- Intraocular Pressure (MEAN) (A.M. readings, Day 26, 1 mg/g (Group D)): 23.1 mmHg
- Intraocular Pressure (MEAN) (A.M. readings, Day 26, 5 mg/g (Group C)): 22.1 mmHg
- Intraocular Pressure (MEAN) (A.M. readings, Day 26, 10 mg/g (Group B)): 21.8 mmHg
- Intraocular Pressure (MEAN) (A.M. readings, Day 30, 1 mg/g (Group D)): 24.2 mmHg
- Intraocular Pressure (MEAN) (A.M. readings, Day 30, 5 mg/g (Group C)): 22.9 mmHg
- Intraocular Pressure (MEAN) (A.M. readings, Day 30, 10 mg/g (Group B)): 22.7 mmHg
- Intraocular Pressure (MEAN) (A.M. readings, Day 32, 1 mg/g (Group D)): 24.9 mmHg
- Intraocular Pressure (MEAN) (A.M. readings, Day 32, 5 mg/g (Group C)): 23.4 mmHg
- Intraocular Pressure (MEAN) (A.M. readings, Day 32, 10 mg/g (Group B)): 23.9 mmHg
- Intraocular Pressure (MEAN) (A.M. readings, Pre-Study, 1 mg/g (Group D)): 24.4 mmHg
- Intraocular Pressure (MEAN) (A.M. readings, Pre-Study, 5 mg/g (Group C)): 24.8 mmHg
- Intraocular Pressure (MEAN) (A.M. readings, Pre-Study, 10 mg/g (Group B)): 24.0 mmHg
- Intraocular Pressure (MEAN) (P.M. readings, Day 3, 1 mg/g (Group D)): 24.7 mmHg
- Intraocular Pressure (MEAN) (P.M. readings, Day 3, 5 mg/g (Group C)): 23.6 mmHg
- Intraocular Pressure (MEAN) (P.M. readings, Day 3, 10 mg/g (Group B)): 23.1 mmHg
- Intraocular Pressure (MEAN) (P.M. readings, Day 5, 1 mg/g (Group D)): 25.5 mmHg
- Intraocular Pressure (MEAN) (P.M. readings, Day 5, 5 mg/g (Group C)): 24.8 mmHg
- Intraocular Pressure (MEAN) (P.M. readings, Day 5, 10 mg/g (Group B)): 25.7 mmHg
- Intraocular Pressure (MEAN) (P.M. readings, Day 10, 1 mg/g (Group D)): 25.3 mmHg
- Intraocular Pressure (MEAN) (P.M. readings, Day 10, 5 mg/g (Group C)): 25.6 mmHg
- Intraocular Pressure (MEAN) (P.M. readings, Day 10, 10 mg/g (Group B)): 24.3 mmHg
- Intraocular Pressure (MEAN) (P.M. readings, Day 12, 1 mg/g (Group D)): 24.0 mmHg
- Intraocular Pressure (MEAN) (P.M. readings, Day 12, 5 mg/g (Group C)): 23.4 mmHg
- Intraocular Pressure (MEAN) (P.M. readings, Day 12, 10 mg/g (Group B)): 23.8 mmHg
- Intraocular Pressure (MEAN) (P.M. readings, Day 16, 1 mg/g (Group D)): 22.0 mmHg
- Intraocular Pressure (MEAN) (P.M. readings, Day 16, 5 mg/g (Group C)): 21.4 mmHg
